# pIC50: −log10 of the molar value.
# Molecular target: T1, full length PKC θ (Homo sapiens, UniProt Q04759)
# T1 construct: 15 μL of full length PKC θ (Panvera Corporation); purchased Panvera Corporation
# Assay: PKC-theta isoform inhibition assay (HTRF, 384 well plate)
# Type: biochemical
# Conditions: full length PKC θ at 27 pM, peptide substrate 300 nM + 3 μM ATP, HTRF readout
# Description: An in vitro assay for detecting and measuring inhibition activity against PKC-theta isoform by candidate pharmacological agents is useful for evaluating and selecting a compound that modulates PKC-theta isoform. An IC50 value can be calculated after running the assay. Following is an assay protocol for measuring PKC-theta isoform.
# Per well of a 384 well plate, compounds at various concentrations in 5 μL of 20% DMSO were pre-incubated for about 30 minutes at about 25° C. with 15 μL of full length PKC θ (Panvera Corporation) at 27 pM in an assay buffer (25 mM Hepes, pH 7.5, 5 mM DTT, 10 mM MgCl2, 10 mM 2-glycerophosphate, 12.5 μg/mL 1,2-dioleoyl-rac-glycerol, 10 μg/mL L-α-phosphatidyl-L-serine, 0.1% Bovine Serum Albumin). 10 μL of peptide substrate (biotin-(CH2)6— RFARKGSLRQKNV —CONH2) at 300 nM+3 μM ATP were added to each well and incubated for about 1 hour before quenching with 10 μL of 250 mM EDTA. 40 μL of detection buffer (25 mM Hepes, pH 7.5, 100 mM KF, 0.1% Bovine Serum Albumin, 0.01% Tween20) containing 2 nM anti-phospho antibody 2B9 (MBL International) labeled with europium cryptate (Cis-Bio International) and 0.0064 μg/mL streptavidin-allophycocyanin (Prozyme) was added to each well and incubated for two hours. Signal was then read on a Discovery HTRF (Packard).
# T1 sequence (Q04759 whole entry): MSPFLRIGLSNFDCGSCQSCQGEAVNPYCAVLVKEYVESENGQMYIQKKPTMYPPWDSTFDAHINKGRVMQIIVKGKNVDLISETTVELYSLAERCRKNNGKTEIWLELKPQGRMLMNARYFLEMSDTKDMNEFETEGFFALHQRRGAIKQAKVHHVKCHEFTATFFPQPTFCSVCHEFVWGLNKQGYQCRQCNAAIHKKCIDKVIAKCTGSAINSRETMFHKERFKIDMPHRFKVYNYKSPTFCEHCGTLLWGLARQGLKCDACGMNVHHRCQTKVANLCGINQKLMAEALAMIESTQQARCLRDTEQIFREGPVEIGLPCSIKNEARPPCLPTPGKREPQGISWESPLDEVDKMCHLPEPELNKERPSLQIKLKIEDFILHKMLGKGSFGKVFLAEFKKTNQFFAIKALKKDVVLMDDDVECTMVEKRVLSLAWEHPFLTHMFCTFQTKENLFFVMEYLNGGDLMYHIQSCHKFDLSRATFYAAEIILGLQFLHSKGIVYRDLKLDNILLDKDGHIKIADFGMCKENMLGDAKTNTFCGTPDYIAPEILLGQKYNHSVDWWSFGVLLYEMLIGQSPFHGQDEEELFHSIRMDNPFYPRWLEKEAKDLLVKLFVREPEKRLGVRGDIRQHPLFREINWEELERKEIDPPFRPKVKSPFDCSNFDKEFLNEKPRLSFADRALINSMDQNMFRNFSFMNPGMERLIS
row,SMILES,pIC50
1,"[2H]C([2H])(CNc1nccc(-c2cccc(CN3CCNC[C@@H]3C)c2)n1)c1cc(F)cc(F)c1 [Compound 200, [2-(3,5-Difluoro-phenyl)-2,2 dideuteroethyl]-{4-[3-(2(S)-methyl-piperazin-1-ylmethyl)-phenyl]-pyrimidin-2-yl}-amine]",> 7.00
2,"CC(C)NCc1cccc(-c2ccnc(NCCc3ccc(O)c(Cl)c3)n2)c1 [Compound 132, 2-Chloro-4-(2-{4-[3-(isopropylamino-methyl)-phenyl]-pyrimidin-2-ylamino}-ethyl)-phenol]",> 7.00
3,CC(c1cccc(-c2ccnc(NCCc3ccc(O)cc3)n2)c1)N(CCCN)S(C)(=O)=O (centres unmarked) [Compound 104],> 7.00
4,"Oc1ccc(CCNc2nccc(-c3cccc(NC4CCNCC4)c3)n2)cc1 [Compound 38, 4-(2-{4-[3-(Piperidin-4-ylamino)-phenyl]-pyrimidin-2-ylamino}-ethyl)-phenol]",> 7.00
5,"CCN(Cc1cccnc1)c1cccc(-c2ccnc(NCCc3ccc(O)cc3)n2)c1 [Compound 80, 4-(2-{4-[3-(Ethyl-pyridin-3-ylmethyl-amino)-phenyl]-pyrimidin-2-ylamino}-ethyl)-phenol]",> 7.00
6,"Oc1ccc(CCNc2nccc(-c3cccc(NC4CCCNC4)c3)n2)cc1 (centres unmarked) [Compound 53, 4-(2-{4-[3-(Piperidin-3-ylamino)-phenyl]-pyrimidin-2-ylamino}-ethyl)-phenol]",> 7.00
7,"Oc1ccc(CCNc2nccc(-c3cccc(CN4CC5CC4CN5)c3)n2)cc1Cl (centres unmarked) [Compound 265, 2-Chloro-4-(2-{4-[3-(2,5-diaza-bicyclo[2.2.1]hept-2-ylmethyl)-phenyl]-pyrimidin-2-ylamino}-ethyl)-phenol]",> 7.00
8,"Oc1ccc(CCNc2nccc(-c3cccc(NC4CCNCC4)c3)n2)cc1Cl [Compound 45, 2-Chloro-4-(2-{4-[3-(piperidin-4-ylamino)-phenyl]-pyrimidin-2-ylamino}-ethyl)-phenol]",> 7.00
9,"CS(=O)(=O)N(CCCN)Cc1cccc(-c2ccnc(NCCc3ccc(O)c(Br)c3)n2)c1 [Compound 36, N-(3-Amino-propyl)-N-(3-{2-[2-(3-bromo-4-hydroxy-phenyl)-ethylamino]-pyrimidin-4-yl}-benzyl)-methanesulfonamide]",> 7.00
10,"Oc1cccc(CCNc2nccc(-c3cccc(NC4CCNCC4)c3)n2)c1 [Compound 49, 3-(2-{4-[3-(Piperidin-4-ylamino)-phenyl]-pyrimidin-2-ylamino}-ethyl)-phenol]",> 7.00
11,"Oc1ccc(CCNc2nccc(-c3cccc(NC4CCNCC4)c3)n2)cc1Br [Compound 50, 2-Bromo-4-(2-{4-[3-(piperidin-4-ylamino)-phenyl]-pyrimidin-2-ylamino}-ethyl)-phenol]",> 7.00
12,"CS(=O)(=O)N(CCCN)Cc1cccc(-c2ccnc(NCCc3ccc(O)c(Cl)c3)n2)c1 [Compound 24, N-(3-Amino-propyl)-N-(3-{2-[2-(3-chloro-4-hydroxy-phenyl)-ethylamino]-pyrimidin-4-yl}-benzyl)-methanesulfonamide]",> 7.00
13,"COc1cc(CCNc2nccc(-c3cccc(NC4CCNCC4)c3)n2)ccc1O [Compound 40, 2-Methoxy-4-(2-{4-[3-(piperidin-4-ylamino)-phenyl]-pyrimidin-2-ylamino}-ethyl)-phenol]",> 7.00
14,C[C@H]1CNCCN1S(=O)(=O)c1cccc(-c2ccnc(NCCc3ccc(O)c(Cl)c3)n2)c1 [Compound 278],> 7.00
15,"C[C@H]1CNCC[C@H]1NCc1cccc(-c2ccnc(NCCc3ccc(O)cc3)n2)c1 [Compound 249, 4-[2-(4-{3-[(3(S)-Methyl-piperidin-4(R)-ylamino)-methyl]-phenyl}-pyrimidin-2-ylamino)-ethyl]-phenol]",> 7.00
16,Cc1ncccc1C(=O)NCCCN(Cc1cccc(-c2ccnc(NCCc3ccc(O)cc3)n2)c1)S(C)(=O)=O [Compound 62],> 7.00
17,"Oc1ccc(CCNc2nccc(-c3cccc(CNCCc4ccccn4)c3)n2)cc1Cl [Compound 292, 2-chloro-4-(2-(4-(3-((2-(pyridinyl-2-yl)ethylamino)methyl)phenyl)pyrimidin-2-ylamino)ethyl)phenol]",> 7.00

# Results, then the molecule that gave them:
row,pIC50,SMILES
1,> 7.00,"C[C@H]1CNCCN1Cc1cc(-c2ccnc(NCCc3ccc(O)cc3)n2)ccc1F [Compound 286, 4-(2-(4-(4-fluoro-3-(((S)-2-methylpiperazin-1-yl)methyl)phenyl)pyrimidin-2-ylamino)ethyl)phenol]"
2,> 7.00,"CS(=O)(=O)N(CCCNS(=O)(=O)c1ccccc1)Cc1cccc(-c2ccnc(NCCc3ccc(O)cc3)n2)c1 [Compound 65, N-{3-[(3-{2-[2-(4-Hydroxy-phenyl)-ethylamino]-pyrimidin-4-yl}-benzyl)-methanesulfonyl-amino]-propyl}-benzenesulfonamide]"
3,> 7.00,"CC(C)(C)NCc1cccc(-c2ccnc(NCCc3ccc(O)c(Cl)c3)n2)c1 [Compound 218, 4-(2-{4-[3-(tert-Butylamino-methyl)-phenyl]-pyrimidin-2ylamino}-ethyl)-2-chloro-phenol]"
4,> 7.00,"Cc1c(CN2CCNC[C@@H]2C)cccc1-c1ccnc(NCCc2ccc(O)cc2)n1 [Compound 284, 4-(2-(4-(2-methyl-3-(((S)-2-methylpiperazin-1-yl)methyl)phenyl)pyrimidin-2-ylamino)ethyl)phenol]"
5,> 7.00,"CS(=O)(=O)N(CCCN)Cc1cccc(-c2ccnc(NCCc3ccc(N)cc3)n2)c1 [Compound 5, N-(3-{2-[2-(4-Amino-phenyl)-ethylamino]-pyrimidin-4-yl}-benzyl)-N-(3-amino-propyl)-methanesulfonamide]"
6,> 7.00,"CN1CCN(Cc2cccc(-c3ccnc(NCCc4ccc(O)cc4)n3)c2)CC1 [Compound 81, 4-(2-{4-[3-(4-Methyl-piperazin-1-ylmethyl)-phenyl]-pyrimidin-2-ylamino}-ethyl)-phenol]"
7,> 7.00,"CCNCc1cccc(-c2ccnc(NCCc3ccc(O)cc3)n2)c1 [Compound 131, 4-{2-[4-(3-Ethylaminomethyl-phenyl)-pyrimidin-2-ylamino]-ethyl}-phenol]"
8,> 7.00,"CS(=O)(=O)N(Cc1cccc(-c2nc(NCCc3ccc(O)cc3)ncc2F)c1)C1CCNCC1 [Compound 134, N-(3-{5-Fluoro-2-[2-(4-hydroxy-phenyl)-ethylamino]-pyrimidin-4-yl}-benzyl)-N-piperidin-4-yl-methanesulfonamide]"
9,> 7.00,"CS(=O)(=O)N(Cc1cccc(-c2nc(NCCc3ccc(O)c(Cl)c3)ncc2F)c1)C1CCNCC1 [Compound 142, N-(3-{2-[2-(3-Chloro-4-hydroxy-phenyl)-ethylamino]-5-fluoro-pyrimidin-4-yl}-benzyl)-N-piperidin-4-yl-methanesulfonamide]"
10,> 7.00,"Oc1ccc(CCNc2nccc(-c3cccc(NC4CCCNC4)c3)n2)cc1Cl (centres unmarked) [Compound 54, 2-Chloro-4-(2-{4-[3-(piperidin-3-ylamino)-phenyl]-pyrimidin-2-ylamino}-ethyl)-phenol]"
11,> 7.00,"CC(=O)N(Cc1cccc(-c2ccnc(NCCc3ccc(O)cc3)n2)c1)CC1CCNC1 (centres unmarked) [Compound 120, N-(3-{2-[2-(4-Hydroxy-phenyl)-ethylamino]-pyrimidin-4-yl}-benzyl)-N-pyrrolidin-3-ylmethyl-acetamide]"
12,> 7.00,"CS(=O)(=O)N(CCCN)Cc1cccc(-c2ccnc(NCCc3ccc(O)cc3)n2)c1 [Compound 2, N-(3-Amino-propyl)-N-(3-{2-[2-(4-hydroxy-phenyl)-ethylamino]-pyrimidin-4-yl}-benzyl)-methanesulfonamide]"
13,> 7.00,"CC(O)c1cccc(-c2ccnc(NCCc3ccc(O)cc3)n2)c1 (centres unmarked) [Compound 121, 4-(2-{4-[3-(1-Hydroxy-ethyl)-phenyl]-pyrimidin-2-ylamino}-ethyl)-phenol]"
14,> 7.00,"CS(=O)(=O)N(CCCNC(=O)c1ccccn1)Cc1cccc(-c2ccnc(NCCc3ccc(O)cc3)n2)c1 [Compound 60, Pyridine-2-carboxylic acid {3-[(3-{2-[2-(4-hydroxy-phenyl)-ethylamino]-pyrimidin-4-yl}-benzyl)-methanesulfonyl-amino]-propyl}-amide]"
15,> 7.00,"Oc1c(Cl)cc(CCNc2nccc(-c3cccc(NC4CCNCC4)c3)n2)cc1Cl [Compound 48, 2,6-Dichloro-4-(2-{4-[3-(piperidin-4-ylamino)-phenyl]-pyrimidin-2-ylamino}-ethyl)-phenol]"
16,> 7.00,"NCCCNC(=O)c1cccc(-c2ccnc(NCCc3ccc(O)cc3)n2)c1 [Compound 68, N-(3-Amino-propyl)-3-{2-[2-(4-hydroxy-phenyl)-ethylamino]-pyrimidin-4-yl}-benzamide]"
17,> 7.00,"NC(=O)C1CNCCN1Cc1cccc(-c2ccnc(NCCc3ccc(O)cc3)n2)c1 (centres unmarked) [Compound 254, 1-(3-{2-[2-(4-Hydroxy-phenyl)-ethylamino]-pyrimidin-4-yl}-benzyl)-piperazine-2-carboxylic acid amide]"
18,> 7.00,"CS(=O)(=O)N(CCCN)Cc1cccc(-c2ccnc(NCCc3ccc(O)c([N+](=O)[O-])c3)n2)c1 [Compound 22, N-(3-Amino-propyl)-N-(3-{2-[2-(4-hydroxy-3-nitro-phenyl)-ethylamino]-pyrimidin-4-yl}-benzyl)-methanesulfonamide]"
